Several values for one entry are separate records, joined by “and”; a condition that tells them apart may be missing. Equal entries are not always repeated. Where two headings read alike, the source gives them in different places.

In general, EC50 refers to the midpoint of the concentration-response curve. As usually defined, the Ki is the dissociation constant of the complex between target and ligand, obtained from inhibition or displacement.

Assay [1] addresses T1, delta opioid receptor (Mus musculus, UniProt P32300).
T1 construct: NG108-15 cell membranes were purchased from Applied Cell Sciences (Rockville, Md.); host or cells: NG108-15 cell membranes (purchased)
Briefly: [35S]GTPγS binding assay in NG108-15 cell membranes (delta opioid functional assay). It is filed as biochemical. The note with it: for GTPγS δ-Rel Efficacy @200 nM: 200 nM compound, relative to calculated max of SNC80 dose response. On the procedure:
Methods: NG108-15 cell membranes were purchased from Applied Cell Sciences (Rockville, Md.). 5 mg/mL of membrane protein was suspended in 10 mM TRIS-HCl pH 7.2, 2 mM EDTA, 10% sucrose. Membranes were maintained at 4-8° C. A 1 mL volume of membranes was added into 10 mL cold binding assay buffer. The assay buffer contained 50 mM Tris, pH 7.6, 5 mM MgCl2, 100 mM NaCl, 1 mM DTT and 1 mM EGTA. The membrane suspension was homogenized twice with a Polytron, and centrifuged at 3000 rpm for 10 min. The supernatant was then centrifuged at 18,000 rpm for 20 min. Ten mL assay buffer was added into the pellet containing tube. The pellet and buffer were mixed with a Polytron.
Incubation procedure: The pellet membranes (75 μg/mL) were preincubated with SPA (10 mg/mL) at 25° C. for 45 min in the assay buffer. […] 200 nM of receptor agonists was used to stimulate [^35S]-GTPγS binding. The basal binding was tested in the absence of agonists and non-specific binding was tested in the presence of 10 μM unlabeled GTPγS.
Data % of Basal=(stimulated−non specific)*100/(basal−non specific). Relative Efficacy of a compound at 200 nM=(% of Basal of test compound at 200 nM)/(Calculated Max of SNC80 dose response. Curve in prism).

Assay [2] has as its target T1, delta opioid receptor. Briefly: NG108-15, 24-well delta opioid receptor binding assay. The note with it: NG108-15 cell membranes, ~0.2 nM [3H]Naltrindole; read-out: δ-binding NG108 cell membrane Ki. On the procedure:
Methods: NG108-15 cell membranes were purchased from Applied Cell Sciences (Rockville, Md.). 5 mg/mL of membrane protein was suspended in 10 mM TRIS-HCl pH 7.2, 2 mM EDTA, 10% sucrose. With several brief pulses from a Polytron homogenizer, each vial was homogenized in 5 mls of 50 mM Tris Buffer, pH 7.4. The homogenate was diluted in 50 mM Tris Buffer containing 5 mM MgCl2 to 330 ug/ml in the working solution for a final concentration of 133 ug/well. This particulate preparation was used for the 24-well delta opioid binding assay.
Following incubation with the delta selective ligand ˜0.2 nM [^3H]Naltrindole at 25° C. for 2.5 h in a 24-well plate with total volume of 1 mL, the plate contents were filtered through a UniFilter24, GF/B. This plate was presoaked in 0.3% PEI and filtered through a 24-well Harvester. The UniFilter24 was rinsed three times with 2 mL of 10 mM HEPES (pH 7.4), and dried in an oven at 37° C. for 1.5 hours. To each well, was added 150 μL of Scint0 (PerkinElmer, Cat#6013611). The plates were then read on a TopCount.
Analysis: The data from the scintillation counter were used to calculate either the % inhibition compared to control binding (when only a single concentration of test compound was evaluated) or a Ki value (when a range of concentrations was tested). Non-specific binding (N.S.—1 mM Naloxone) is used as the negative control, while the Total Binding (T.B.—Membrane and ligand only) is used as the positive control. If one concentration is screened, the % inhibition is calculated as (cpms of total binding minus cpms of compound) divided by (cpms of T.B. minus cpms of N.S). The triplicate % Inhibitions are averaged and reported. If multiple concentrations are generated, the values are analyzed using the one-site binding non-linear regression program in Prism to determine Ki values. The bottom and top values are globally shared. The triplicate Kis are then averaged and reported.

Assay [3] concerns the target T1, delta opioid receptor. Briefly: [35S]GTPγS binding assay in NG108-15 cell membranes (delta opioid functional assay). It counts as biochemical. The note with it: for inhibition at 10 µM: read-out: GTPγS δ-opioid receptor % Inh @10 μM, 10 μM. Background: GTPγS resists hydrolysis and so accumulates on activated G proteins.
For assay [4], the target named is T2, delta opioid receptor (Rattus norvegicus, UniProt P33533).
T2 construct: the forebrains were homogenized in Tris buffer in a Teflon®-glass homogenizer; from tissue; host or cells: forebrain of male Wistar rats, particulate membrane preparation
Nature of the assay: Rat brain delta opioid receptor binding assay. As for the experimental part:
(§1) Procedure: Male, Wistar rats (150-250 g, VAF, Charles River, Kingston, N.Y.) were killed by CO2, and their brains were removed and placed immediately in ice cold Tris HCl buffer (50 mM, pH 7.4). The forebrains were separated from the remainder of the brain by a coronal transection, beginning dorsally at the colliculi and passing ventrally through the midbrain-pontine junction. After dissection, the forebrains were homogenized in Tris buffer in a Teflon®-glass homogenizer. The homogenate was diluted to a concentration of 1 g of forebrain tissue per 80 mL Tris and centrifuged at 39,000×g for 10 min. The pellet was resuspended in the same volume of Tris buffer containing 5 mM MgCl2 with several brief pulses from a Polytron homogenizer. This particulate preparation was used for the delta opioid binding assays. Following incubation with the delta selective peptide ligand ˜4 nM [^3H]DPDPE or 0.25 nM [^3H]naltrindole at 25° C. for 2.5 h in a 96-well plate with total volume of […], the plate contents were filtered through Wallac filtermat B sheets on a Tomtec 96-well harvester. […] To each sample area 2×50 μL of Betaplate Scint scintillation fluid (LKB) was added and the radioactivity was quantified on a LKB (Wallac) 1205 BetaPlate liquid scintillation counter.
(§2) Analysis: The data from the scintillation counter was used to calculate either the % inhibition compared to control binding (when only a single concentration of test compound was evaluated) or a Ki value (when a range of concentrations was tested). Percent inhibition was calculated as: [(total dpm−test compound dpm)/(total dpm-nonspecific dpm)]*100. Kd and Ki values were calculated using GraphPad PRISM data analysis program.

In assay [5] the target is T3, mu opioid receptor (Rattus norvegicus, UniProt P33535).
T3 construct: the forebrains were homogenized in Tris buffer in a Teflon®-glass homogenizer; from tissue; host or cells: forebrain of male Wistar rats, particulate membrane preparation
Briefly: Rat brain mu opioid receptor binding assay. As for the experimental part: as §1, with “mu” for “delta”, “ligand, ˜0.8” for “ligand ˜4”, “[^3H]DAMGO,” for “[^3H]DPDPE or 0.25 nM [^3H]naltrindole”, “total assay” for “total”, “2×40” for “2×50”, “quantifed” for “quantified”
as §2

Assay [6] deals with T4, mu opioid receptor (CHO-hMOR cell membranes) (Homo sapiens, UniProt P35372).
T4 construct: host or cells: CHO cells (membranes purchased)
Nature of the assay: [35S]GTPγS binding assay in CHO-hMOR cell membranes (mu opioid functional assay). It counts as biochemical.

[7] abbreviates: read-out: GTPγS δ-opioid receptor EC50.
Where [8] appears, read: rat forebrain membranes, 0.25 nM [3H]naltrindole, read-out: δ-binding (Naltrindole ligand) Ki.
Where [9] appears, read: rat forebrain membranes, ~0.8 nM [3H]DAMGO, read-out: μ-binding Ki.

T2 sequence (P33533 whole entry): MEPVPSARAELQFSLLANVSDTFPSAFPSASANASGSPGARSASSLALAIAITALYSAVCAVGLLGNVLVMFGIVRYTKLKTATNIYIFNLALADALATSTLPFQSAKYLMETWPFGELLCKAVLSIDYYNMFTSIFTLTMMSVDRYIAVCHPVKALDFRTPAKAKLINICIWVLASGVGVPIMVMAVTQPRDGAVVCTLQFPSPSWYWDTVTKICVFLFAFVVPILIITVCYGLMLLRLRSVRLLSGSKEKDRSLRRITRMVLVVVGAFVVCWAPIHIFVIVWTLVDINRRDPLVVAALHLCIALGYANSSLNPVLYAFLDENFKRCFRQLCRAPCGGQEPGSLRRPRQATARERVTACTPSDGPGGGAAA
T3 sequence (P33535 whole entry): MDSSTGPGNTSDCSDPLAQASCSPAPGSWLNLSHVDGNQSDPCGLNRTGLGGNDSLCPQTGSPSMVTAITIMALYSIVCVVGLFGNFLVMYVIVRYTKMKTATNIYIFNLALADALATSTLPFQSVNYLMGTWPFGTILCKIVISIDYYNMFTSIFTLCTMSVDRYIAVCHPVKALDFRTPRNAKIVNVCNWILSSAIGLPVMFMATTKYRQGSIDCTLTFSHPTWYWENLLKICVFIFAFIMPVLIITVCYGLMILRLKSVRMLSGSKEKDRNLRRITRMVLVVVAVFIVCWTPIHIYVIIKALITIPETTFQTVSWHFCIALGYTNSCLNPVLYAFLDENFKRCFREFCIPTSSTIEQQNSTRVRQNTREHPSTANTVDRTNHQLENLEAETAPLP
T1 sequence (P32300 whole entry): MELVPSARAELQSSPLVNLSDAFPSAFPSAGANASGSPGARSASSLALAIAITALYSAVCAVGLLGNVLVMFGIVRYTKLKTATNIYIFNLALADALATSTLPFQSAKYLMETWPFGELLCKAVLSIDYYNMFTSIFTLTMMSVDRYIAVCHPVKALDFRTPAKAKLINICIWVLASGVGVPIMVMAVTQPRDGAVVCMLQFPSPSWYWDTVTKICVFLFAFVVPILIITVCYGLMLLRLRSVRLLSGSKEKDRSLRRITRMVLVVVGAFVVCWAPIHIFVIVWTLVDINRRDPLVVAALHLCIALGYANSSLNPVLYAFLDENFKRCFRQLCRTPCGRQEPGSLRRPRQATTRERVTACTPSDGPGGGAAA
T4 sequence (P35372 whole entry): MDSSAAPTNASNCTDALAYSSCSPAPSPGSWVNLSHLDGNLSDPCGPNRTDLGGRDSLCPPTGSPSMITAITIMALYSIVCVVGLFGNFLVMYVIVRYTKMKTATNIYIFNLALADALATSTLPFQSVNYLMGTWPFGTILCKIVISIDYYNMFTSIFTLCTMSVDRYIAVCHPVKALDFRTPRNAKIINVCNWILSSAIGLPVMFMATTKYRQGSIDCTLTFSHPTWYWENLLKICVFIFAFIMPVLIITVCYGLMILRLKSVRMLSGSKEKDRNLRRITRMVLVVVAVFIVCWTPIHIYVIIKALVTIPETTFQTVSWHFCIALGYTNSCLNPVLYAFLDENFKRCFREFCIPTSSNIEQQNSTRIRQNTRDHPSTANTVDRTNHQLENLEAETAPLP

Take `COc1ccc(Oc2nc(Sc3cccc(F)c3)ncc2NC[C@@H]2CCCN2)cc1` [Cpd 47]: in assay [1], the “GTPγS δ-opioid receptor Rel Efficacy” value amounted to 1.079 and the “GTPγS δ-Rel Efficacy @200 nM” value is on record as 0.481. In addition, the EC50 in assay [1] (setting [7]) amounted to 193 nM. The Ki in assay [2] amounted to 0.739 nM.

For `CCN(CC)C(=O)c1ccc(Oc2ncc(NC[C@@H]3CCCN3)c(Oc3ccc(OC)cc3)n2)cc1` [Cpd 5, N,N-Diethyl-4-{4-(4-methoxy-phenoxy)-5-[(pyrrolidin-2-(S)-ylmethyl)-amino]pyrimidin-2-yloxy}-benzamide], in assay [3], the inhibition at 10 µM was determined as 26.4%. Besides, the EC50 in assay [1] (setting [7]) came to 2620 nM. The Ki in assay [4] turned out to be 18.3 nM; in assay [5], 18.2 nM.

On to `COc1ccc(Oc2ncc(NCC3CCCN3)c(Oc3ccc(OC)cc3)n2)cc1` (stereo not drawn) [Cpd 7], for which the “GTPγS δ-opioid receptor % Inh @10 μM” value in assay [3] worked out at 20.645%. Also, the concentration for a half-maximal effect (EC50) in assay [1] (setting [7]) worked out at 221 nM. The Ki in assay [4] (setting [8]) turned out to be 68.4 nM; in assay [5] (setting [9]) it was 2850 nM.

In the case of `COc1ccc(Oc2ncc(NCC3CCCN3)c(Oc3ccc(OC)cc3)n2)cc1` (racemic) [Cpd 6], the “GTPγS δ-opioid receptor % Inh @10 μM” value in assay [3] is on record as 12.502%. The Ki in assay [4] (setting [8]) stood at 43.7 nM; in assay [5] (setting [9]) it was 1840 nM.

`COc1ccc(Oc2ncc(NC3CCCC(N)C3)c(Oc3ccc(OC)cc3)n2)cc1` (stereo not drawn) [Cpd 3]: in assay [3], the “GTPγS δ-opioid receptor % Inh @10 μM” value came out at 19.733% and the inhibition at 10 µM was found to be 12.8%. The “GTPγS δ-opioid receptor Rel Efficacy” value in assay [1] was 1.106. Moreover, the EC50 in assay [1] (GTPγS δ-opioid receptor EC50) was 559 nM and 92 nM and 206 nM. In assay [4] (setting [8]), the Ki stood at 16.1 nM. The Ki in assay [5] (setting [9]) came out at 1670 nM.

As for `COc1ccc(Oc2ncc(NC3CCCNC3)c(Oc3ccc(OC)cc3)n2)cc1` (stereo not drawn) [Cpd 2], the inhibition at 10 µM in assay [3] came out at 8.16%. The EC50 in assay [1] (setting [7]) was determined as 828 nM. Moreover, the Ki in assay [4] was 7.61 nM; in assay [5] it was 2440 nM.

As for `COc1ccc(Oc2nc(Oc3cccc(Cl)c3)ncc2NC[C@@H]2CCCN2)cc1` [Cpd 51], in assay [1], the “GTPγS δ-opioid receptor Rel Efficacy” value was determined as 1.040 and the “GTPγS δ-Rel Efficacy @200 nM” value is given as 0.859. Besides, in assay [1] (GTPγS δ-opioid receptor EC50), the EC50 was found to be 43 nM.

Take `COc1ccc(Oc2nc(Oc3cc(F)cc(F)c3)ncc2NC[C@@H]2CCCN2)cc1` [Cpd 54]: the “GTPγS δ-Rel Efficacy @200 nM” value in assay [1] was 0.066.

As for “[2-(3-Fluoro-phenoxy)-4-(4-methoxy-phenoxy)-pyrimidin-5-yl]-pyrrolidin-2-(S)-ylmethyl-amine [Cpd 46]”, in assay [1], the “GTPγS δ-opioid receptor Rel Efficacy” value is 0.983 and the “GTPγS δ-Rel Efficacy @200 nM” value is recorded as 0.770. Moreover, the EC50 in assay [1] (setting [7]) amounted to 28 nM. Also, the Ki in assay [2] was 0.288 nM.

`COc1ccc(Oc2nc(Nc3cccnc3)ncc2NC[C@@H]2CCCN2)cc1` [Cpd 48]: in assay [1], the “GTPγS δ-Rel Efficacy @200 nM” value was 0.267.

Take “N-{2-[2,4-Bis-(4-methoxy-phenoxy)-pyrimidin-5-ylamino]ethyl}-guanidine [Cpd 44]”: the “GTPγS δ-opioid receptor % Inh @10 μM” value in assay [3] is 15.636%. For the same compound, in assay [1] (setting [7]), the 50% effective concentration (EC50) came to 1110 nM.

`COc1ccc(Oc2ncc(NC[C@@H]3CCCN3)c(Oc3ccc(OC)cc3)n2)cc1` [Cpd 1, [2,4-Bis-(4-methoxyphenoxy)pyrimidin-5-yl]pyrrolidin-2-(S)-ylmethylamine]: the Ki was 5.9 nM in assay [4] and 3880 nM in assay [5]. In assay [6] (CHO-hMOR cell membranes, read-out: GTPγS μ-opioid receptor EC50), the EC50 stood at 84300 nM. Also, in assay [6] (read-out: GTPγS μ-opioid receptor % Inh @10 μM), the inhibition at 10 µM came to 19.5%.

On to `COc1ccc(Oc2nc(Nc3nccs3)ncc2NC[C@@H]2CCCN2)cc1` [Cpd 50], for which the “GTPγS δ-Rel Efficacy @200 nM” value in assay [1] was 0.143.

`COc1ccc(Oc2nc(Oc3cccnc3)ncc2NC[C@@H]2CCCN2)cc1` [Cpd 45]: in assay [1], the “GTPγS δ-opioid receptor Rel Efficacy” value is 1.178. In assay [1] (setting [7]), the EC50 turned out to be 734 nM. Moreover, in assay [2], the Ki was found to be 1.45 nM.

In the case of `COc1ccc(Oc2nc(C#Cc3ccccc3)ncc2NC[C@@H]2CCCN2)cc1` [Cpd 4, [4-(4-Methoxy-phenoxy)-2-phenylethynyl-pyrimidin-5-yl]-pyrrolidin-2-(S)-ylmethyl-amine], the inhibition at 10 µM in assay [3] is 8.94%. Besides, in assay [1] (GTPγS δ-opioid receptor EC50), the concentration for a half-maximal effect (EC50) came to 1030 nM. Besides, the Ki in assay [4] (setting [8]) was found to be 16.3 nM; in assay [5] (setting [9]), 4420 nM.

(Values after patent publication US8394809B2, “Phenoxy-substituted pyrimidines as opioid receptor modulators” (priority 2009, dated 2013).)
